We go through 23 compounds from ChEMBL document CHEMBL5380841, “Discovery and Binding Mechanism of Pyrazoloisoquinoline-Based Novel β-Arrestin Inverse Agonists of the Kappa-Opioid Receptor” (J Med Chem, 2023).

Data set [1] addresses T1, Kappa-type opioid receptor (Homo sapiens, UniProt P41145). Briefly: Inverse agonist activity at human KOR expressed in human HTLA cells assessed as beta arrestin-2 recruitment at 10 uM by ONE-Glo luciferase assay relative to 1-(5-(2-Chlorophenyl)-7,8-dimethoxy-3-(3-methoxybenzyl)-3H-pyrazolo(3,4-c)isoquinolin-1-yl)-N-(3-methoxybenzyl)-methanamine. Type of data set: functional, cell-based. In general terms: Recruitment of arrestin is a read-out of receptor activation apart from second messengers.

Data set [2] addresses T1, Kappa-type opioid receptor. Description: Inverse agonist activity at human KOR expressed in human HTLA cells assessed as beta arrestin-2 recruitment by ONE-Glo luciferase assay. It counts as functional, cell-based.
For data set [3], the target named is Mu-type opioid receptor (Homo sapiens) (UniProt P35372). Description: Inverse agonist activity at MOR (unknown origin) expressed in HEK293T cells assessed as beta arrestin-2 recruitment upto 10 uM incubated for 20 mins by NanoBiT assay. Type of data set: functional, cell-based.
Data set [4] deals with T2, Delta-type opioid receptor (Homo sapiens, UniProt P41143). Description: Inverse agonist activity at human DOR expressed in human HTLA cells assessed as beta arrestin-2 recruitment by ONE-Glo luciferase assay. Type of data set: functional, cell-based.
Data set [5] is filed under the species Homo sapiens. Briefly: Selectivity ratio of EC50 for human DOR expressed in human HTLA cells assessed as beta arrestin-2 recruitment to EC50 for human KOR expressed in human HTLA cells assessed as beta arrestin-2 recruitment. Type of data set: cell-based.
For data set [6], the target named is T1, Kappa-type opioid receptor. Briefly: Inverse agonist activity at human KOR expressed in human HTLA cells assessed as beta arrestin-2 recruitment upto 10 uM by ONE-Glo luciferase assay. Type of data set: functional, cell-based.
A short description of data set [7]: Permeability of the compound across blood brain barrier at pH 7.4 at 50 uM incubated for 4 hrs by PAMPA assay. It counts as ADME. The conditions noted are these: read-out: permeability. In general terms: The PAMPA barrier holds no transporters, so it reflects passive diffusion.
Data set [8] addresses T1, Kappa-type opioid receptor. Briefly: Inverse agonist activity at human KOR assessed as cAMP inhibition pretreated for 5 mins followed by forskolin treatment measured after 15 mins by Glo-Sensor cAMP cell based assay. Type of data set: functional. Conditions: time 20.0 min.
Data set [9] has as its target Mu-type opioid receptor (Homo sapiens) (UniProt P35372). Briefly: Inverse agonist activity at human MOR assessed as cAMP inhibition pretreated for 5 mins followed by forskolin treatment measured after 15 mins by Glo-Sensor cAMP cell based assay. It counts as functional. The conditions noted are these: time 20.0 min.
Data set [10] deals with T2, Delta-type opioid receptor. Description: Inverse agonist activity at human DOR assessed as cAMP inhibition pretreated for 5 mins followed by forskolin treatment measured after 15 mins by Glo-Sensor cAMP cell based assay. Type of data set: functional. The conditions noted are these: time 20.0 min.
Data set [11] deals with T1, Kappa-type opioid receptor. Briefly: Displacement of [3H]diprenorphine from human KOR expressed in HEK293 cells assessed as maximum inhibition at 10 uM incubated for 60 mins by liquid scintillation method relative to control. The conditions noted are these: filed as inverse agonist. Type of data set: cell-based.
For data set [12], the target named is T1, Kappa-type opioid receptor. Briefly: Displacement of [3H]diprenorphine from human KOR expressed in HEK293 cells incubated for 60 mins by liquid scintillation method. It counts as cell-based. Background: Displacement assays read how much labelled ligand stays bound in the presence of the test substance.
Data set [13] deals with T2, Delta-type opioid receptor. Description: Displacement of [3H]naltrindole from DOR (unknown origin) upto 1 uM by radioligand binding assay relative to control.
Data set [14] has as its target T1, Kappa-type opioid receptor. Description: Displacement of [3H]diprenorphine from human KOR expressed in HEK293 cells assessed as inhibition constant incubated for 60 mins by liquid scintillation method. It counts as cell-based.
The target in data set [15] is Mu-type opioid receptor (Homo sapiens) (UniProt P35372). Description: Displacement of [3H]naltrindole from MOR (unknown origin) upto 1 uM by radioligand binding assay relative to control.

Activity calls are given as the source filed them. The rule behind the calls is not given here.

Mu-type opioid receptor (Homo sapiens), sequence (P35372 whole entry): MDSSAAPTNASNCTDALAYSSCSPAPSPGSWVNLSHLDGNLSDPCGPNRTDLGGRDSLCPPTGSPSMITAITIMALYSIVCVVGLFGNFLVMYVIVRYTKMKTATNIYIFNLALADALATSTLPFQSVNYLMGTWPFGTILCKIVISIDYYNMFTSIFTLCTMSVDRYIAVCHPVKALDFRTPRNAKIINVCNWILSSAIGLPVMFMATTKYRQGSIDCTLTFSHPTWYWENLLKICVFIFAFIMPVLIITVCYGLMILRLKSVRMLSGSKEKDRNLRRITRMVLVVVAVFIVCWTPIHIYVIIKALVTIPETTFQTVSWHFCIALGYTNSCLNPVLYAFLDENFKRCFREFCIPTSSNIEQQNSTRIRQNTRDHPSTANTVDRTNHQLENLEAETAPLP
T2 sequence (P41143 whole entry): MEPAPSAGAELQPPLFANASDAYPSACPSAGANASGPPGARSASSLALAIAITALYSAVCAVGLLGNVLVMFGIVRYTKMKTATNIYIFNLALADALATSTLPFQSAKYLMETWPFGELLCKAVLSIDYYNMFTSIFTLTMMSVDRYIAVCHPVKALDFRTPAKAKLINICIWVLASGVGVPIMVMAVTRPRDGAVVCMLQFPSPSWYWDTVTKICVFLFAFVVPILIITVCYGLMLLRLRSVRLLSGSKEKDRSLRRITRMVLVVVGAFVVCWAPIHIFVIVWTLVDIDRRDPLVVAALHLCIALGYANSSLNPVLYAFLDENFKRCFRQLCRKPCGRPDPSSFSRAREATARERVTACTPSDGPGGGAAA
T1 sequence (P41145 whole entry): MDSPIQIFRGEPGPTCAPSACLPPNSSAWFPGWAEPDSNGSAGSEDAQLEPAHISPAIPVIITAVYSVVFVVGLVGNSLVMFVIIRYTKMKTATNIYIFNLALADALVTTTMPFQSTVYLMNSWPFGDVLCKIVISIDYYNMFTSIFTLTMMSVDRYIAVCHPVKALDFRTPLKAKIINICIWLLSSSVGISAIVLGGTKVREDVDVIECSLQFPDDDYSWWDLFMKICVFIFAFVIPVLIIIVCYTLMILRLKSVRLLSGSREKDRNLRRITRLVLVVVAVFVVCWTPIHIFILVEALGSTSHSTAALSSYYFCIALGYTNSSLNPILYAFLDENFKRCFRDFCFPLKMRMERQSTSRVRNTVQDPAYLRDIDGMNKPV

As usually defined, the Emax is the maximal effect, on the per cent scale that the assay sets. One may read the EC50 as the concentration that produces a half-maximal response. In the case of `COc1cccc(Cn2nc(CNCc3ccc4ccccc4c3)c3c4cc(OC)c(OC)cc4c(-c4ccccc4Cl)nc32)c1`, the Emax in data set [1] was -97.6%. Also, the EC50 in data set [2] amounted to 0.0943 µM. Besides, the outcome in [3] was inactive.
In the same order, the values of `COc1ccc(CNCc2nn(Cc3cccc(OC)c3)c3nc(-c4ccccc4Cl)c4cc(OC)c(OC)cc4c23)cc1` are -98.2%, 0.103 µM and “inactive”.
`O=C(Cc1ccc(Cl)c(Cl)c1)N1CCCC[C@H]1CN1CCCC1`: the Emax in [1] is -100%. Besides, the EC50 in data set [2] was found to be 0.0105 µM.
In the case of `COc1cccc(Cn2nc(CNCCc3ccc4ccccc4c3)c3c4cc(OC)c(OC)cc4c(-c4ccccc4Cl)nc32)c1`, the values for the half-maximal effective concentration (EC50) in data set [4] and in data set [2] were 0.691 µM and 0.0699 µM, respectively. Besides, the Emax in [1] was -97.2%. For the same compound, in [5], the Ratio EC50 is 10. For the same compound, the outcome in [3] was inactive.
As for `COc1cccc(CCNCc2nn(Cc3cccc(OC)c3)c3nc(-c4ccccc4Cl)c4cc(OC)c(OC)cc4c23)c1`, in data set [1], the Emax was -72.8%. Besides, the concentration giving a half-maximal response (EC50) in [2] was found to be 1.06 µM. Besides, in data set [3], the outcome was inactive.
Taken in the same sequence, the figures for `COc1cccc(Cn2nc(CNCc3ccc(Oc4ccccc4)cc3)c3c4cc(OC)c(OC)cc4c(-c4ccccc4Cl)nc32)c1` were -91.8%, 0.338 µM and “inactive”.
With `COc1cc2c(-c3ccccc3Cl)nc3c(c(CNCc4cccc(Oc5ccccc5)c4)nn3CC3CCN(C(=O)OC(C)(C)C)CC3)c2cc1OC`, the Emax in [1] was -99.4%. Also, the EC50 in data set [2] came out at 0.674 µM. Besides, in [3], the result was inactive.
Taken in the same sequence, the figures for `COc1cccc(Cn2nc(CNCCc3cccc(Oc4ccccc4)c3)c3c4cc(OC)c(OC)cc4c(-c4ccccc4Cl)nc32)c1` were -81.9%, 0.227 µM and “inactive”.
For the compound `COc1cccc(Cn2nc(CNc3ccc4ccccc4c3)c3c4cc(OC)c(OC)cc4c(-c4ccccc4Cl)nc32)c1`, the outcome in [1], in data set [3] and in data set [6] was inactive.
On to `COc1cccc(Cn2nc(CNCc3ccc(OC)c(OC)c3)c3c4cc(OC)c(OC)cc4c(-c4ccccc4Cl)nc32)c1`, for which the Emax in data set [1] is -103%. For the same compound, the EC50 in data set [2] was 0.643 µM. Further, the outcome in data set [3] was inactive.
With `COc1cccc(CNCc2n[nH]c3nc(-c4ccccc4Cl)c4cc(OC)c(OC)cc4c23)c1`, the outcome in data set [1], in data set [3] and in data set [6] was inactive.
As to `COc1cccc(CNCc2nn(Cc3cccc(OC)c3)c3ncc4cc(OC)c(OC)cc4c23)c1`, the result in data set [1], in data set [3] and in [6] was inactive.
Take `CC(=O)[C@H]1CC[C@H]2[C@@H]3CCC4=CC(=O)CC[C@]4(C)[C@H]3CC[C@]12C` [PROGESTERONE]: the Papp at 4 h, 50 µM in [7] is 378 nm/s.
As to `COc1cccc(Cn2nc(CNCc3cccc4ccccc34)c3c4cc(OC)c(OC)cc4c(-c4ccccc4Cl)nc32)c1`, the Emax in data set [1] was -96.7%. The half-maximal effective concentration (EC50) in data set [2] is 0.43 µM. The outcome in [3] was inactive.
For `CNC(=C[N+](=O)[O-])NCCSCc1ccc(CN(C)C)o1.Cl` [RANITIDINE HYDROCHLORIDE], the Papp at 4 h, 50 µM in data set [7] was 1.2 nm/s.
Take `COc1cccc(Cn2nc(CNCc3cc4ccccc4[nH]3)c3c4cc(OC)c(OC)cc4c(-c4ccccc4Cl)nc32)c1`: the Emax in data set [1] was -98.3%. In addition, in [2], the 50% effective concentration (EC50) amounted to 0.339 µM. Also, the outcome in [3] was inactive.
As for `COc1cccc(Cn2nc(CNc3cccc(OC)c3)c3c4cc(OC)c(OC)cc4c(-c4ccccc4Cl)nc32)c1`, the outcome in data set [1], in data set [3] and in data set [6] was inactive.
Consider `COc1cc2c(-c3ccccc3Cl)nc3c(c(CNCc4cccc(Oc5ccccc5)c4)nn3CC3CCNCC3)c2cc1OC`, for which, in data set [1], the Emax is -95.1%. For the same compound, the EC50 in data set [2] is 2.67 µM. The outcome in [3] was inactive.
Turning to `COc1cc2c(-c3ccccc3Cl)nc3c(c(CNCc4cccc(Oc5ccccc5)c4)nn3Cc3cccc(Cl)c3)c2cc1OC`, the Emax in data set [1] was -101%. Moreover, in [2], the EC50 was found to be 0.105 µM. The outcome in data set [3] was inactive.
Turning to `COc1cccc(CNCc2nn(Cc3cccc(OC)c3)c3nc(-c4ccccc4Cl)c4cc(OC)c(OC)cc4c23)c1`, the half-maximal effective concentration (EC50) was 0.483 µM in [4] and 0.127 µM in [2]. Moreover, the outcome in [8], in data set [9], in data set [3] and in data set [10] was inactive.
For the compound `COc1cccc(Cn2nc(CNCc3cccc(Oc4ccccc4)c3)c3c4cc(OC)c(OC)cc4c(-c4ccccc4Cl)nc32)c1`, the EC50 in [4] is 0.0495 µM; in data set [2], 0.0091 µM. In addition, the Emax in data set [1] was -100%. Also, in [5], the Ratio EC50 amounted to 5. For the same compound, in data set [3], the result was inactive.
Take `COc1cccc(Cn2nc(CNCc3ccccc3Oc3ccccc3)c3c4cc(OC)c(OC)cc4c(-c4ccccc4Cl)nc32)c1`: the Emax in [1] was -104%. For the same compound, the EC50 in data set [2] was 0.0545 µM. Also, the result in [3] was inactive.
As usually defined, the IC50 is the concentration that inhibits the measured activity by half. Usually inhibition stands for the percentage by which the read-out fell short of the control. As usually defined, the Ki is the dissociation constant of the complex between target and ligand, obtained from inhibition or displacement. For the compound `COc1cccc(Cn2nc(CNCc3cccc(OCc4ccccc4)c3)c3c4cc(OC)c(OC)cc4c(-c4ccccc4Cl)nc32)c1`, the EC50 was found to be 0.207 µM in data set [4] and 0.00933 µM in [2]. Moreover, the Emax in data set [1] was -103%. Besides, the Imax in [11] was found to be 72%. The Ratio EC50 in data set [5] was found to be 22. The compound further returned an IC50 in [12] of 0.25 µM. In addition, in data set [3], the result was inactive. The values for the inhibition in data set [13] and in [15] were 10% and 20%, respectively. Moreover, the Ki in data set [14] worked out at 0.1 µM.
